Measured values from patent US20220041647A1, “ESTRA-1,3,5(10)-TRIENE COMPOUNDS CONDENSED IN POSITION 16(17) WITH A PYRAZOLE RING AS INHIBITORS OF 17-HSD1” (FORENDO PHARMA LTD, priority 2018, published 2022).

How the values were obtained:
Format in all cases: biochemical
[1] = test system: HSD1 enzyme that is expressed in rabbit placenta tissue; assay: Inhibition of E1 to E2 conversion in rabbit placenta tissue homogenate; conditions: compound 100 nM, 30 nM estrone, 1 mM β-NADPH, 30 min
Method: The assay is based on an enzymatic reaction where HSD1 enzyme that is expressed in rabbit placenta tissue converts its natural substance estrone (E1) to estradiol (E2) in the presence of a co-factor β-NADPH.
Homogenization of rabbit placenta tissue: Weight a piece of the frozen tissue into a Precellys ck28 bead tube. Add buffer solution (20 mM KH2PO4 with 1 mM EDTA, pH 7.4) in 1:2 ratio (e.g. 300 mg of tissue:600 μl reaction buffer solution). Insert the bead tubes to homogenizer and homogenize 2×30 s. 6000 rpm.
Centrifugated 5 min., 2600 rpm at +4° C. and collect supernatant. Aliquots of homogenate are stored in −80° C.
Assay—Inhibition of E1 to E2 conversion in rabbit placenta tissue: The reaction takes place in a buffer solution (20 mM KH2PO4 with 1 mM EDTA, pH 7,4), including appropriate amount of rabbit placenta homogenate, co-factor (1 mM β-NADPH), Substrate (30 nM estrone), labelled substrate as tracer (5 nM [^3H]-estrone), and the potential inhibitor at concentrations 1 μM or 0.1 μM. Inhibitor stock solutions were prepared in DMSO. Final concentration of DMSO was adjusted to 1% in all samples. During a 30-minute incubation part of the estrone is converted to estradiol. The reaction is stopped by lowering the pH to 1 with 10% trichloro acetic acid (TCA). The substrate and conversion products are analyzed by HPLC and a Scintillation counter analyzer. Total radioactivity for estrone and estradiol were determined in each sample and percent conversion of estrone to estradiol was calculated according to the following formula:
% conversion=100×{(cpm estradiol in sample with inhibitor)/[(cpm estrone in sample with inhibitor)+(cpm estradiol in sample with inhibitor)]}/{(cpm estradiol in sample without inhibitor)/[(cpm estrone in sample without inhibitor)+(cpm estradiol in sample without inhibitor)]}.
(§1) Percent inhibition was calculated followingly: % inhibition=100−% conversion.

[2] = target: T1, recombinant human 17β-HSD1 (Homo sapiens, UniProt P14061); assay: Inhibition of recombinant human 17β-HSD1 (estrone to estradiol conversion, HPLC/radioactivity); conditions: compound 100 nM; 30 nM estrone, 1 mM NADPH, 30 min RT
T1 construct: made in house; host or cells: Sd9 (Sf9) insect cells, baculovirus (Bac to Bac Expression System)
T1 sequence (P14061 1-328): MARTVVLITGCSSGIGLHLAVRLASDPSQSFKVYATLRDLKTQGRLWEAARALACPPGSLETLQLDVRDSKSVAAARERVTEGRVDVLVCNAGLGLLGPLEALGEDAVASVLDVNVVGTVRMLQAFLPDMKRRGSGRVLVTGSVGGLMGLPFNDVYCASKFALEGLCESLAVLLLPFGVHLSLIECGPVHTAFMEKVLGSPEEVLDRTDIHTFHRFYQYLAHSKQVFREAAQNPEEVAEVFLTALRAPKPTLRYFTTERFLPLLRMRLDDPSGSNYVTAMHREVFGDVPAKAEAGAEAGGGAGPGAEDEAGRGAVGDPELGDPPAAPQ
Method: 17β-HSD1 production and isolation: Recombinant baculovirus was generated by the “Bac to Bac Expression System” (Invitrogen). Recombinant bacmid was transfected to Sd9 insect cells using “Cellfectin Reagent” (Invitrogen). 60 h later cells were harvested; the microsomal fraction was isolated as described by Puranen, T. J., Poutanen, M. H., Peltoketo, H. E., Vihko, P. T. and Vihko, R. K. (1994) Site-directed mutagenesis of the putative active site of human 17 β-hydroxysteroid dehydrogenase type 1. Biochem. J. 304: 289-293. Aliquots were stored frozen until determination of enzymatic activity.
Assay—Inhibition of recombinant human 17β-HSD1: Recombinant protein (1 μg/ml) was incubated in 20 mM KH2PO4 pH 7.4 with 30 nM estrone (including 800 000 cpm/ml of ^3H-estrone) and 1 mM NADPH for 30 min at RT, in the presence of the potential inhibitor at concentrations 1 μM or 0.1 μM. Inhibitor stock solutions were prepared in DMSO. Final concentration of DMSO was adjusted to 1% in all samples. The enzyme reaction was stopped by addition of 10% trichloroacetic acid (final concentration). Samples were centrifuged in a microtiter plate at 4000 rpm for 10 min. Supernatants were applied to reverse phase HPLC on a Waters Symmetry C18 column, equipped with a Waters Sentry Guard column. Isocratic HPLC runs were performed at RT at a flow rate of 1 ml/min in acetonitrile:water 48:52 as running solvent. Radioactivity was monitored in the eluate by a Scintillation Analyzer. Total radioactivity for estrone and estradiol were determined in each sample and percent conversion of estrone to estradiol was calculated according to the following formula:
% conversion=100×{(cpm estradiol in sample with inhibitor)/[(cpm estrone in sample with inhibitor)+(cpm estradiol in sample with inhibitor)]}/{[(cpm estradiol in sample without inhibitor)/[(cpm estrone in sample without inhibitor)+(cpm estradiol in sample without inhibitor)]}.
as §1

[3] = target: T2, recombinant human 17β-HSD2 (Homo sapiens, UniProt P37059); assay: Inhibition of recombinant human 17β-HSD2 (estradiol to estrone conversion, HPLC/radioactivity); conditions: compound 1 μM; 50 nM estradiol, 1 mM NADH, 30 min RT
T2 construct: made in house; host or cells: Sd9 (Sf9) insect cells, baculovirus (Bac to Bac Expression System)
T2 sequence (P37059 1-387): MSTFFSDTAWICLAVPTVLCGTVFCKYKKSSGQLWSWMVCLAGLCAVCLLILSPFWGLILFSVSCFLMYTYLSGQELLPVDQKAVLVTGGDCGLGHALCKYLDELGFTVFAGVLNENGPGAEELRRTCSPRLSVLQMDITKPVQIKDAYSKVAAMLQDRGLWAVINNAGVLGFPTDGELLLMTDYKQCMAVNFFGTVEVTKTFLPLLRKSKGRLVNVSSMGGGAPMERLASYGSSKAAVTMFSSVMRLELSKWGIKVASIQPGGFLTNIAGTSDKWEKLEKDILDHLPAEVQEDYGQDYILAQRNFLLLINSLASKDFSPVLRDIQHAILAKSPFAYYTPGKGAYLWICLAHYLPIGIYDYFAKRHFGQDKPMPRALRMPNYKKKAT
Method: 17β-HSD2 production and isolation: Similarly to 173-HSD1 the Recombinant baculovirus was generated by the “Bac to Bac Expression System” (Invitrogen). Recombinant bacmid was transfected to Sd9 insect cells using “Cellfectin Reagent” (Invitrogen). 60 h later cells were harvested and supernatant were fractionated by the following protocol: • cells were dissolved into 40 ml of A-buffer (40 mM TRIS, pH8.0, 20% glycerol, 20 μM NAD, 0.4 mM PMSF, 150 mM NaCl, 0.5% dodecyl-β-maltoside+protease inhibitor cocktail) • cells were sonicated • lysate was incubated on ice for 15 min • lysate was centrifuged 5000 rpm 15 min, +4° C. • centrifugation of the supernatant 180 000 g 30 min, +4° C. • pellet was dissolved into 8 ml of A-buffer • not resuspended material was removed by centrifugation 5000 rpm 15 min, +4° C. • the clear supernatant was divided into 100 μl aliquots and were stored frozen until determination of enzymatic activity.
The amount of 173-HSD2 was analysed by immunoblotting and total protein concentration of each extract batch was determined.
Assay—Inhibition of recombinant human 17β-HSD2: Recombinant protein (4 μg/ml) was incubated in 20 mM KH2PO4 pH 8.5 with 50 nM estradiol (including 800 000 cpm/ml of ^3H-estradiol) and 1 mM NADH for 30 min at RT, in the presence of the potential inhibitor at concentrations 1 μM or 0.1 μM. Inhibitor stock solutions were prepared in DMSO. Final concentration of DMSO was adjusted to 1% in all samples. The enzyme reaction was stopped by addition of 10% trichloroacetic acid (final concentration). Samples were centrifuged in a microtiter plate at 4000 rpm for 10 min. Supernatants were applied to reverse phase HPLC on a Waters Symmetry C18 column, equipped with a Waters Sentry Guard column. Isocratic HPLC runs were performed at RT at a flow rate of1 ml/min in acetonitrile:water 48:52 as running solvent. Radioactivity was monitored in the eluate by a Scintillation Analyzer. Total radioactivity for estrone and estradiol were determined in each sample and percent conversion of estradiol to estrone was calculated according to the following formula:
% conversion=100×{(cpm estrone in sample with inhibitor)/[(cpm estradiol in sample with inhibitor)+(cpm estrone in sample with inhibitor)]}/{[(cpm estrone in sample without inhibitor)/[(cpm estradiol in sample without inhibitor)+(cpm estrone in sample without inhibitor)]}.
as §1

With `C[C@]12CCC3c4cccc(F)c4CCC3C1[C@H](CCC(=O)Nc1ccc(C#N)cn1)c1c[nH]nc12` (stereo partly drawn) [Compound 3, N-(5-Cyanopyridin-2-yl)-3-((8aS,12S)-3-fluoro-8a-methyl-1,2,6b,7,8,8a,10,12,12a,12b-decahydronaphtho[2′,1′:4,5]indeno[1,2-c]pyrazol-12-yl)propanamide] the “Rabbit placenta inhibition % @100 nM” value [1] was 54%, the inhibition at 0.1 µM [2] was 98% and the inhibition at 1 µM [3] was 9%.
For `COc1ccc(NC(=O)CC[C@@H]2c3c[nH]nc3[C@@]3(C)CCC4c5cccc(F)c5CCC4C23)nn1` (stereo partly drawn) [Compound 6, 3-((8aS,12S)-3-fluoro-8a-methyl-1,2,6b,7,8,8a,10,12,12a,12b-decahydronaphtho[2′,1′:4,5]indeno[1,2-c]pyrazol-12-yl)-N-(6-methoxypyridazin-3-yl)propanamide], the “Rabbit placenta inhibition % @100 nM” value [1] was 86%, the inhibition at 0.1 µM [2] was 93% and the inhibition at 1 µM [3] was 8%.
For `C[C@]12CCC3c4cccc(F)c4CCC3C1[C@H](CCC(=O)Nc1ccc(F)cn1)c1c[nH]nc12` (stereo partly drawn) [Compound 12, 3-((8aS,12S)-3-fluoro-8a-methyl-1,2,6b,7,8,8a,10,12,12a,12b-decahydronaphtho[2′,1′:4,5]indeno[1,2-c]pyrazol-12-yl)-N-(5-fluoropyridin-2-yl)propanamide], the “Rabbit placenta inhibition % @100 nM” value [1] was 46%, the inhibition at 0.1 µM [2] was 92% and the inhibition at 1 µM [3] was 5%.
`Cc1ccnc(NC(=O)CC[C@@H]2c3c[nH]nc3[C@@]3(C)CCC4c5cccc(F)c5CCC4C23)c1` (stereo partly drawn) [Compound 27, 3-((8aS,12S)-3-fluoro-8a-methyl-1,2,6b,7,8,8a,10,12,12a,12b-decahydronaphtho[2′,1′:4,5]indeno[1,2-c]pyrazol-12-yl)-N-(4-methylpyridin-2-yl)propanamide] was tested, and the “Rabbit placenta inhibition % @100 nM” value [1] was 55%, the inhibition at 0.1 µM [2] was 96% and the inhibition at 1 µM [3] was 2%.
With `CN(CC1CC1)C(=O)CC[C@@H]1c2c[nH]nc2[C@@]2(C)CCC3c4cccc(F)c4CCC3C12` (stereo partly drawn) [Compound 60, N-(cyclopropylmethyl)-3-((8aS,12S)-3-fluoro-8a-methyl-1,2,6b,7,8,8a,10,12,12a,12b-decahydronaphtho[2′,1′:4,5]indeno[1,2-c]pyrazol-12-yl)-N-methylpropanamide] the “Rabbit placenta inhibition % @100 nM” value [1] was 16%, the inhibition at 0.1 µM [2] was 93% and the inhibition at 1 µM [3] was 9%.
`Cn1cc(NC(=O)CC[C@@H]2c3c[nH]nc3[C@@]3(C)CCC4c5cccc(F)c5CCC4C23)cn1` (stereo partly drawn) [Compound 63, 3-((8aS,12S)-3-fluoro-8a-methyl-1,2,6b,7,8,8a,10,12,12a,12b-decahydronaphtho[2′,1′:4,5]indeno[1,2-c]pyrazol-12-yl)-N-(1-methyl-1H-pyrazol-4-yl)propanamide] was tested, and the “Rabbit placenta inhibition % @100 nM” value [1] was 62%, the inhibition at 0.1 µM [2] was 96% and the inhibition at 1 µM [3] was 2%.
`CC(C)(C)NC(=O)CC[C@@H]1c2c[nH]nc2[C@@]2(C)CCC3c4cccc(F)c4CCC3C12` (stereo partly drawn) [Compound 72, N-(tert-butyl)-3-((8aS,12S)-3-fluoro-8a-methyl-1,2,6b,7,8,8a,10,12,12a,12b-decahydronaphtho[2′,1′:4,5]indeno[1,2-c]pyrazol-12-yl)propanamide] was tested, and the inhibition at 0.1 µM [2] was 93% and the inhibition at 1 µM [3] was 2%.
With `C[C@]12CCC3c4ccc(F)cc4CCC3C1[C@H](CCC(=O)N1CCCC1)c1c[nH]nc12` (stereo partly drawn) [Compound 117, 3-((8aS,12S)-4-fluoro-8a-methyl-1,2,6b,7,8,8a,10,12,12a,12b-decahydronaphtho[2′,1′:4,S]indeno[1,2-c]pyrazol-12-yl)-1-(pyrrolidin-1-yl)propan-1-one] the inhibition at 0.1 µM [2] was 73% and the inhibition at 1 µM [3] was 2%.
With `C[C@]12CCC3c4ccccc4CCC3C1[C@H](CCC(=O)N1CCOCC1)c1c[nH]nc12` (stereo partly drawn) [Compound 249, 3-((8aS,12S)-8a-methyl-1,2,6b,7,8,8a,10,12,12a,12b-decahydronaphtho[2′,1′:4,5]indeno[1,2-c]pyrazol-12-yl)-1-morpholinopropan-1-one] the inhibition at 0.1 µM [2] was 59% and the inhibition at 1 µM [3] was 7%.
With `C[C@]12CCC3c4ccccc4CCC3C1[C@H](CCC(=O)Nc1ncc(F)cc1F)c1c[nH]nc12` (stereo partly drawn) [Compound 261, N-(3,5-difluoropyridin-2-yl)-3-((8aS,12S)-8a-methyl-1,2,6b,7,8,8a,10,12,12a,12b-decahydronaphtho[2′,1′:4,5]indeno[1,2-c]pyrazol-12-yl)propanamide] the inhibition at 0.1 µM [2] was 50% and the inhibition at 1 µM [3] was 9%.
Molecule `C[C@]12CCC3c4ccccc4CCC3C1[C@H](CCC(=O)Nc1ncccc1F)c1c[nH]nc12` (stereo partly drawn) [Compound 264, N-(3-fluoropyridin-2-yl)-3-((8aS,12S)-8a-methyl-1,2,6b,7,8,8a,10,12,12a,12b-decahydronaphtho[2′,1′:4,5]indeno[1,2-c]pyrazol-12-yl)propanamide] has an inhibition at 0.1 µM [2] of 54% and an inhibition at 1 µM [3] of 4%.
